{"source": "paper PMC6407917", "about": "“Identification of GSK3186899/DDD853651 as a Preclinical Development Candidate for the Treatment of Visceral Leishmaniasis” (Journal of Medicinal Chemistry, 2018)", "key": {"CDK5": {"biological_target": "CDK5 (Homo sapiens, UniProt Q00535)", "assay": "biochemical", "design": "species or system HEK293/K-562/placenta mixed human extract; Kinobeads chemoproteomic competition binding, quantified by TMT LC-MS/MS, dose response up to 20 uM"}, "WNK1": {"biological_target": "WNK1 (Homo sapiens, UniProt Q9H4A3)", "assay": "biochemical", "design": "species or system HEK293/K-562/placenta mixed human extract; Kinobeads chemoproteomic competition binding, quantified by TMT LC-MS/MS, dose response up to 20 uM"}, "PRKAR2B": {"biological_target": "PRKAR2B (Homo sapiens, UniProt P31323)", "assay": "biochemical", "design": "species or system HEK293/K-562/placenta mixed human extract; Kinobeads chemoproteomic competition binding, quantified by TMT LC-MS/MS, dose response up to 20 uM"}, "MAP3K5": {"biological_target": "MAP3K5 (Homo sapiens, UniProt Q99683)", "sequence (Q99683 whole entry)": "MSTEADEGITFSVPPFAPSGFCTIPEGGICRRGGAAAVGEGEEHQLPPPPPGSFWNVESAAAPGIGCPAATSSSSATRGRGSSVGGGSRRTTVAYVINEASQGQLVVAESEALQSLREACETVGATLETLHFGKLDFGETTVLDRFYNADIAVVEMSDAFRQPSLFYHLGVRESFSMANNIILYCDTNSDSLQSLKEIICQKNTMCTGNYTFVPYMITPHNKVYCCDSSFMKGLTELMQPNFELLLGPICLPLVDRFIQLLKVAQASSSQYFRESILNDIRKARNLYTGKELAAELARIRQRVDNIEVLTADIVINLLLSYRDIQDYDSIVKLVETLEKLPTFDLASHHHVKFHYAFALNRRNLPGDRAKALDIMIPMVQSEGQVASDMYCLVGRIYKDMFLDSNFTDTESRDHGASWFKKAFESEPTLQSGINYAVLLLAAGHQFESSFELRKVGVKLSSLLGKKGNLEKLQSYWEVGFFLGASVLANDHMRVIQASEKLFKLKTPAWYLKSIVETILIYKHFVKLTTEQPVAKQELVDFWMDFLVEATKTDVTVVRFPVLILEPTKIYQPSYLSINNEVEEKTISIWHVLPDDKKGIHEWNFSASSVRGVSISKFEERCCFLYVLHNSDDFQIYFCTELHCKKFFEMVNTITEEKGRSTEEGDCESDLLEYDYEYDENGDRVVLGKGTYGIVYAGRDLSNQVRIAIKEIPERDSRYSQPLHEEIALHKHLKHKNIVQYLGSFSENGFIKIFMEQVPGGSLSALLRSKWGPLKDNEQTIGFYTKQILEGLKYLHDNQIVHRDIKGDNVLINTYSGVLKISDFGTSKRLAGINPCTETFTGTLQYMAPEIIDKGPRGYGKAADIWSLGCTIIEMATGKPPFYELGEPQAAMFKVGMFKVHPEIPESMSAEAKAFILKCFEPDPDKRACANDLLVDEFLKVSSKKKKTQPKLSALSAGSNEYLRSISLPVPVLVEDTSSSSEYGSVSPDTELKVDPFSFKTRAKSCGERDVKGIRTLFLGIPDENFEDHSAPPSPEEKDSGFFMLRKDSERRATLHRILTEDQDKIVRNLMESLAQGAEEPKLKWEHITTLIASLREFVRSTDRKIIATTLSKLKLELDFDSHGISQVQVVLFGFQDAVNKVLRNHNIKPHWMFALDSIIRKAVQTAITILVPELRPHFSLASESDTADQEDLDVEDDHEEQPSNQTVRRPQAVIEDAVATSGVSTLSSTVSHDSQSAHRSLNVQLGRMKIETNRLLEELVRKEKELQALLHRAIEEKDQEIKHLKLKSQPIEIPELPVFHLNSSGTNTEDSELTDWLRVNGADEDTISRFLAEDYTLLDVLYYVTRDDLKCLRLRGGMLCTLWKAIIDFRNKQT", "assay": "biochemical", "design": "species or system HEK293/K-562/placenta mixed human extract; Kinobeads chemoproteomic competition binding, quantified by TMT LC-MS/MS, dose response up to 20 uM"}, "CYP3A4": {"biological_target": "CYP3A4 (Homo sapiens, UniProt P08684)", "sequence (P08684 2-503)": "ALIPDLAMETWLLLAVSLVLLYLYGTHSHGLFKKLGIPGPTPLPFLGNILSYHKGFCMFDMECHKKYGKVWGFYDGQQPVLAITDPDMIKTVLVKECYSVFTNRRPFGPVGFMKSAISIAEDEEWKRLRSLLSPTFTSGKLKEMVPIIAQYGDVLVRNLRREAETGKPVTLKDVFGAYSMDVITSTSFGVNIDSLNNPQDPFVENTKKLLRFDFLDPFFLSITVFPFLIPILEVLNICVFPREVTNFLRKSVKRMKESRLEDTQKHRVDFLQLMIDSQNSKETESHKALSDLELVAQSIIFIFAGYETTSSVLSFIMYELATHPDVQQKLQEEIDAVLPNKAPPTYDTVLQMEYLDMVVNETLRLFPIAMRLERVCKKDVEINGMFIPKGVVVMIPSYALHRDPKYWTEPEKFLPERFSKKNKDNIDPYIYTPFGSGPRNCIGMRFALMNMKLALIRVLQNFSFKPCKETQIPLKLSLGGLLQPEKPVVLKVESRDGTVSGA", "assay": "midazolam marker-substrate inhibition assay, LC-MS/MS", "type": "biochemical", "source_text": "midazolam marker-substrate inhibition assay, LC-MS/MS on CYP3A4"}, "RPS6KA3": {"biological_target": "RPS6KA3 (Homo sapiens, UniProt P51812)", "sequence (P51812 whole entry)": "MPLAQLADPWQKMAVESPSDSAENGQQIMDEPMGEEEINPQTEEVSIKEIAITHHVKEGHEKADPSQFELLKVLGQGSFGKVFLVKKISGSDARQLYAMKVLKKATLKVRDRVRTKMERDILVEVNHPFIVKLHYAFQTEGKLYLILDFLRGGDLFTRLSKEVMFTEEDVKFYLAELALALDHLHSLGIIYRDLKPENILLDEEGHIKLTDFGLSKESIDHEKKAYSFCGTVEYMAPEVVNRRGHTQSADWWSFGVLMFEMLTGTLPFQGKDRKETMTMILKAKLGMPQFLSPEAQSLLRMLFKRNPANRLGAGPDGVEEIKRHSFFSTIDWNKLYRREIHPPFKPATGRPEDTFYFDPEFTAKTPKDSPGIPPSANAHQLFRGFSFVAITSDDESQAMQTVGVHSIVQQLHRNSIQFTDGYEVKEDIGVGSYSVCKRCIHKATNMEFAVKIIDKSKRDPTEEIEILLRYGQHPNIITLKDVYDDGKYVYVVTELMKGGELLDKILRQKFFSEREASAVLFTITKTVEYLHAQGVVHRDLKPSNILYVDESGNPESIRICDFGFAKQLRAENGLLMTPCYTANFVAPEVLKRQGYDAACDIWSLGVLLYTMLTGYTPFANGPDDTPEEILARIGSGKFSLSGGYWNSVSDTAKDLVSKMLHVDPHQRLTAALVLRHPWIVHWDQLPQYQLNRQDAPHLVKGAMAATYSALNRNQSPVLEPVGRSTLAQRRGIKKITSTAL", "assay": "biochemical", "design": "species or system HEK293/K-562/placenta mixed human extract; Kinobeads chemoproteomic competition binding, quantified by TMT LC-MS/MS, dose response up to 20 uM"}, "CDK2": {"biological_target": "CDK2 (Homo sapiens, UniProt P24941)", "assay": "biochemical", "design": "species or system HEK293/K-562/placenta mixed human extract; Kinobeads chemoproteomic competition binding, quantified by TMT LC-MS/MS, dose response up to 20 uM"}, "PRKD2": {"biological_target": "PRKD2 (Homo sapiens, UniProt Q9BZL6)", "assay": "biochemical", "design": "species or system HEK293/K-562/placenta mixed human extract; Kinobeads chemoproteomic competition binding, quantified by TMT LC-MS/MS, dose response up to 20 uM"}, "LATS1": {"biological_target": "LATS1 (Homo sapiens, UniProt O95835)", "assay": "biochemical", "design": "species or system HEK293/K-562/placenta mixed human extract; Kinobeads chemoproteomic competition binding, quantified by TMT LC-MS/MS, dose response up to 20 uM"}, "MAP3K13": {"biological_target": "MAP3K13 (Homo sapiens, UniProt O43283)", "assay": "biochemical", "design": "species or system HEK293/K-562/placenta mixed human extract; Kinobeads chemoproteomic competition binding, quantified by TMT LC-MS/MS, dose response up to 20 uM"}, "STRADA": {"biological_target": "STRADA (Homo sapiens, UniProt Q7RTN6)", "sequence (Q7RTN6 whole entry)": "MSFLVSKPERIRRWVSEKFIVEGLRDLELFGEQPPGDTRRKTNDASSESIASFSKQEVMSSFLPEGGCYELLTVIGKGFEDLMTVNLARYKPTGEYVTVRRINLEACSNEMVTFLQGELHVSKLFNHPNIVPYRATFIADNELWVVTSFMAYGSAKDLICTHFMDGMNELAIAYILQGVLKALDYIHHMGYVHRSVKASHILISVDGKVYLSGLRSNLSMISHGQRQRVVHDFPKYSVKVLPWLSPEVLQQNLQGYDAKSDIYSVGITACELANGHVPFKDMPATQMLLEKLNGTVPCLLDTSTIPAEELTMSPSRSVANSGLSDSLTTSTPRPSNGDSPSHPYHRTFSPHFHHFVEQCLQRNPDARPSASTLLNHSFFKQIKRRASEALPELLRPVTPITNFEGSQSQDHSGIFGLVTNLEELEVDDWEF", "assay": "biochemical", "design": "species or system HEK293/K-562/placenta mixed human extract; Kinobeads chemoproteomic competition binding, quantified by TMT LC-MS/MS, dose response up to 20 uM"}, "IRAK3": {"biological_target": "IRAK3 (Homo sapiens, UniProt Q9Y616)", "sequence (Q9Y616 whole entry)": "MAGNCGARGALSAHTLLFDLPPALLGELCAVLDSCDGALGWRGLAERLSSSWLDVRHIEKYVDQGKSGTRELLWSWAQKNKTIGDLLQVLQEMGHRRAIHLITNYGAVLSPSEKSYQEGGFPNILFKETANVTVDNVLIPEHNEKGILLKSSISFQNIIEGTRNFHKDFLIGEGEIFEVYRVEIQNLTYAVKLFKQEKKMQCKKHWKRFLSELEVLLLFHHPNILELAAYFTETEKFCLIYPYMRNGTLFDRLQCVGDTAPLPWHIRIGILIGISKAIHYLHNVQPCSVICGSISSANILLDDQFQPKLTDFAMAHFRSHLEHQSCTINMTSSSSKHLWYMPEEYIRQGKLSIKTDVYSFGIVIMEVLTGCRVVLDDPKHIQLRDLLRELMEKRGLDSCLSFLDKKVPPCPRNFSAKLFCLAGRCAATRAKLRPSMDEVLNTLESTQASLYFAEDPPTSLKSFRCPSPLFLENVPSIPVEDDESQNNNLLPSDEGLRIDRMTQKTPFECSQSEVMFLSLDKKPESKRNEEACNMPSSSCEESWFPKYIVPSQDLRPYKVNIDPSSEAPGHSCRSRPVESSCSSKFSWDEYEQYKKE", "assay": "biochemical", "design": "species or system HEK293/K-562/placenta mixed human extract; Kinobeads chemoproteomic competition binding, quantified by TMT LC-MS/MS, dose response up to 20 uM"}, "MAPK11": {"biological_target": "MAPK11 (Homo sapiens, UniProt Q15759)", "sequence (Q15759 whole entry)": "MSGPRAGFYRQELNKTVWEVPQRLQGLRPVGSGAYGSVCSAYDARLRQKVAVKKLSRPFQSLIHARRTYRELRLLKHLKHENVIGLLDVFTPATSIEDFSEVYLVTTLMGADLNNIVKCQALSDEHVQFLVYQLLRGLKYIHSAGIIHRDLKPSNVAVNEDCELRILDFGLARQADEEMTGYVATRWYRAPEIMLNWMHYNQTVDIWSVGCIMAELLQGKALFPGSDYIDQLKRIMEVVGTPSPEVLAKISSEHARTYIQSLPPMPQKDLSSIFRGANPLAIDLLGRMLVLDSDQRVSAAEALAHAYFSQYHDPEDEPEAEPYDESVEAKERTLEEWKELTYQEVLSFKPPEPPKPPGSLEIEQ", "assay": "biochemical", "design": "species or system HEK293/K-562/placenta mixed human extract; Kinobeads chemoproteomic competition binding, quantified by TMT LC-MS/MS, dose response up to 20 uM"}, "MAP4K4": {"biological_target": "MAP4K4 (Homo sapiens, UniProt O95819)", "assay": "biochemical", "design": "species or system HEK293/K-562/placenta mixed human extract; Kinobeads chemoproteomic competition binding, quantified by TMT LC-MS/MS, dose response up to 20 uM"}, "PRKD1": {"biological_target": "PRKD1 (Homo sapiens, UniProt Q15139)", "assay": "biochemical", "design": "species or system HEK293/K-562/placenta mixed human extract; Kinobeads chemoproteomic competition binding, quantified by TMT LC-MS/MS, dose response up to 20 uM"}, "CSNK2A2": {"biological_target": "CSNK2A2 (Homo sapiens, UniProt P19784)", "sequence (P19784 whole entry)": "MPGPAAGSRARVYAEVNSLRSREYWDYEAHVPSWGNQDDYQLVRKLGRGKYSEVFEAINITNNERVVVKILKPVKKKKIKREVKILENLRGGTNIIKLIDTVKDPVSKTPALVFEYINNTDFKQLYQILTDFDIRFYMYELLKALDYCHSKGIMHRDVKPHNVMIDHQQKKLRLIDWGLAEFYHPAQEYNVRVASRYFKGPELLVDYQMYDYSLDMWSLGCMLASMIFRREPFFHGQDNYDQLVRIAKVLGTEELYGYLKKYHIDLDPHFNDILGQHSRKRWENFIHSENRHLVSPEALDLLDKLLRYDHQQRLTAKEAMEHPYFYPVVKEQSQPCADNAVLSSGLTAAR", "assay": "biochemical", "design": "species or system HEK293/K-562/placenta mixed human extract; Kinobeads chemoproteomic competition binding, quantified by TMT LC-MS/MS, dose response up to 20 uM"}, "STK16": {"biological_target": "STK16 (Homo sapiens, UniProt O75716)", "assay": "biochemical", "design": "species or system HEK293/K-562/placenta mixed human extract; Kinobeads chemoproteomic competition binding, quantified by TMT LC-MS/MS, dose response up to 20 uM"}, "MAP2K6": {"biological_target": "MAP2K6 (Homo sapiens, UniProt P52564)", "sequence (P52564 whole entry)": "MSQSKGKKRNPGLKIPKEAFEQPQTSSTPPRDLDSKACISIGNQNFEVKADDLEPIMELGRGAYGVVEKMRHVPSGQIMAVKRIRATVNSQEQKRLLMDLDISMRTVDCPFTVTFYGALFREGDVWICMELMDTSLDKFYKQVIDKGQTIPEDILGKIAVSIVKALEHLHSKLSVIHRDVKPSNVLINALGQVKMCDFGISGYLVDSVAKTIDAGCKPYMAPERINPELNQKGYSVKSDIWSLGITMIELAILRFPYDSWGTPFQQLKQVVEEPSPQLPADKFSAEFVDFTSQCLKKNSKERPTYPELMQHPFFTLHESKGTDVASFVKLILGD", "assay": "biochemical", "design": "species or system HEK293/K-562/placenta mixed human extract; Kinobeads chemoproteomic competition binding, quantified by TMT LC-MS/MS, dose response up to 20 uM"}, "SERPINB2": {"biological_target": "SERPINB2 (Homo sapiens, UniProt P05120)", "assay": "biochemical", "design": "species or system HEK293/K-562/placenta mixed human extract; Kinobeads chemoproteomic competition binding, quantified by TMT LC-MS/MS, dose response up to 20 uM"}, "Cdk4": {"biological_target": "Cdk4 (Homo sapiens, UniProt P11802)", "sequence (P11802 2-303)": "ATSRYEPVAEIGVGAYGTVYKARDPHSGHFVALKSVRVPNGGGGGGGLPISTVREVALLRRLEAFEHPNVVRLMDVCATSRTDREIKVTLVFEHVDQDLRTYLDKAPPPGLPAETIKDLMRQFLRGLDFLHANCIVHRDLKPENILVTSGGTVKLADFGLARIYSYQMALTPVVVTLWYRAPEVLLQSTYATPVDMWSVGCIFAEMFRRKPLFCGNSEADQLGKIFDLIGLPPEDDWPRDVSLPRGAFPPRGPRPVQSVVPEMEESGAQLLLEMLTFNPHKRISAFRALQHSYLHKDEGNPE", "conditions": "mixed human cell/tissue extract; maximum concentration 20 μM"}, "hERG": {"biological_target": "T1, hERG (Homo sapiens, UniProt Q12809)", "T1 construct": "gene KCNH2; in vitro hERG assay, standard protocol", "assay": "in vitro hERG assay, standard protocol", "type": "cell-based", "conditions": "read-out: 1", "source_text": "in vitro hERG assay, standard protocol on hERG"}}, "data": [{"smiles": "COc1ccccc1-c1n[nH]c2nc(N[C@H]3CC[C@H](NS(=O)(=O)CCC(F)(F)F)CC3)nc(OC)c12", "note": "[compound 31, 3,3,3-Trifluoro-N-(trans-4-((4-methoxy-3-(2-methoxyphenyl)-1H-pyrazolo[3,4-d]pyrimidin-6-yl)amino)cyclohexyl)propane-1-sulfonamide]", "values": [{"measurement": "IC50", "setting": "CDK5", "value": 1.2, "unit": "µM"}, {"measurement": "IC50", "setting": "WNK1", "value": "≥ 20", "unit": "µM"}, {"measurement": "IC50", "setting": "PRKAR2B", "value": "≥ 20", "unit": "µM"}, {"measurement": "IC50", "setting": "MAP3K5", "value": "≥ 20", "unit": "µM"}]}, {"smiles": "COc1nc(N[C@H]2CC[C@H](NS(=O)(=O)CC(C)C)CC2)nc2[nH]nc(N3CCOC[C@H]3C)c12", "note": "[compound 39, N-(trans-4-((4-Methoxy-3-((R)-3-methylmorpholino)-1H-pyrazolo[3,4-d]pyrimidin-6-yl)amino)cyclohexyl)-2-methylpropane-1-sulfonamide]", "values": [{"measurement": "IC50", "setting": "CYP3A4", "value": "> 39.8", "unit": "µM"}, {"measurement": "IC50", "setting": "RPS6KA3", "value": "≥ 20", "unit": "µM"}, {"measurement": "IC50", "setting": "CDK2", "value": 4.5, "unit": "µM"}, {"measurement": "IC50", "setting": "PRKD2", "value": "≥ 20", "unit": "µM"}, {"measurement": "IC50", "setting": "LATS1", "value": "≥ 20", "unit": "µM"}, {"measurement": "IC50", "setting": "MAP3K13", "value": "≥ 20", "unit": "µM"}, {"measurement": "IC50", "setting": "STRADA", "value": "≥ 20", "unit": "µM"}, {"measurement": "IC50", "setting": "IRAK3", "value": "≥ 20", "unit": "µM"}, {"measurement": "IC50", "setting": "MAPK11", "value": "≥ 20", "unit": "µM"}, {"measurement": "IC50", "setting": "MAP4K4", "value": "≥ 20", "unit": "µM"}, {"measurement": "IC50", "setting": "PRKD1", "value": "≥ 20", "unit": "µM"}, {"measurement": "IC50", "setting": "CSNK2A2", "value": "≥ 20", "unit": "µM"}, {"measurement": "IC50", "setting": "STK16", "value": "≥ 20", "unit": "µM"}, {"measurement": "IC50", "setting": "MAP2K6", "value": "≥ 20", "unit": "µM"}, {"measurement": "IC50", "setting": "SERPINB2", "value": "≥ 20", "unit": "µM"}, {"measurement": "IC50", "setting": "Cdk4", "value": "> 20", "unit": "µM"}, {"measurement": "IC50", "setting": "hERG", "value": "> 30", "unit": "µM"}]}]}
